Key:
Format in all cases: in vivo
Nilaparvata lugens [1] = experiment: Test Example 5: drench at foot of rice seedling, release of Nilaparvata lugens larvae; details: soil, 144 h; 500 ppm active ingredient; rice seedling drenched at its foot with 5 ml, kept 7 days; twenty third-fourth instar larvae of Nilaparvata lugens; examined after 6 days
Description: On the other hand, a rice seedling (2 weeks after sowing, the second leaf stage) planted in a plastic cup was drenched at its foot with 5 ml of each of the diluted solutions, and kept in a greenhouse of 25° C. for 7 days. Twenty third-fourth instar larvae of Nilaparvata lugens were released, and further kept in the greenhouse for 6 days, then the number of insect of living Nilaparvata lugens parasitized on the rice was examined, and a control value was calculated according to the following equation: Control value (%)={1−(Cb×Tai)/(Cai×Tb))×100 wherein symbols represent as follows: Cb: the number of insects in a non-treated section before treatment, Cai: the number of insects in a non-treated section in observation, Tb: the number of insects in a treated-section before treatment, Tai: the number of insects in a treated-section in observation; wherein the non-treated section represents a section where the test diluted solution prepared by diluting the formulation without the present compound in Formulation Example 5 with the same amount of water as in the treated-section was used.

Nilaparvata lugens [2] = experiment: Test Example 4: spray on rice seedling, release of Nilaparvata lugens larvae; details: 144 h; 500 ppm active ingredient; rice seedling sprayed with 10 ml; third-fourth instar larvae of Nilaparvata lugens; after 6 days at 25° C.; read-out: Control value
Aphis gossypii [3] = experiment: Test Example 3: drench at foot of cucumber seedling, then inoculation with Aphis gossypii; details: soil, 144 h, read-out: Control value
Bemisia tabaci = experiment: Test Example 6: spray on tomato seedling with Bemisia tabaci instar larvae; details: 168 h; 500 ppm active ingredient; 20 ml/cup sprayed on tomato seedling with hatched Bemisia tabaci instar larvae; after 7 days at 25° C.
Description: On the other hand, Bemisia tabaci adult was released on a tomato seedling (the third true leaf stage) planted in a polyethylene cup, and made to lay eggs for about 72 hours. The tomato seedling was kept in a greenhouse for 8 days. When instar larvae hatched from the eggs, the above test spray solution was sprayed in the amount of 20 ml/cup. The cup was kept in a greenhouse at 25° C. After the keeping for 7 days, the number of surviving instar larvae on the tomato leaves was examined, and a control value was calculated according to the following equation: Control value (%)={1−(Cb×Tai)/(Cai×Tb))×100 wherein symbols represent as follows: Cb: the number of insects in a non-treated section before treatment, Cai: the number of insects in a non-treated section in observation, Tb: the number of insects in a treated-section before treatment, Tai: the number of insects in a treated-section in observation; wherein the non-treated section represents a section where the test spray solution prepared by diluting the formulation without the present compound in Formulation Example 5 with the same amount of water as in the treated-section was sprayed.

Aphis gossypii [4] = experiment: Test Example 1: spray on cucumber seedling inoculated with Aphis gossypii; details: topical, 144 h; 500 ppm active ingredient (Formulation Example 5 diluted with water); 20 ml sprayed on cucumber seedling with about 30 Aphis gossypii; six days after spraying
Description: On the other hand, on a cucumber seedling (the first true leaf stage) planted in a plastic cup was inoculated with about 30 Aphis gossypii, and leaving it for a day. Twenty ml of each of the above test spray solutions was sprayed on this seedling. Six days after spraying, the number of the surviving Aphis gossypii parasitized on the leaves of the cucumber was examined, and a control value was calculated according to the following equation: Control value (%)={1−(Cb×Tai)/(Cai×Tb))×100 wherein symbols represent as follows: Cb: the number of insects in a non-treated section before treatment, Cai: the number of insects in a non-treated section in observation, Tb: the number of insects in a treated-section before treatment, Tai: the number of insects in a treated-section in observation; wherein the non-treated section represents a section where the test spray solution prepared by diluting the formulation without the present compound in Formulation Example 5 with the same amount of water as in the treated-section was sprayed.

Aphis gossypii [5] = experiment: Test Example 2: root immersion of cucumber seedling, then inoculation with Aphis gossypii; details: 168 h; 500 ppm active ingredient; cucumber root part immersed in 5 ml; 30 Aphis gossypii inoculated one day after treatment; examined after further seven days
Description: A root part of a cucumber seedling (the first true leaf stage) from which soil had been washed off was immersed in 5 ml of each of the diluted solutions, and one day after treatment, on the cucumber leaf surface was inoculated with 30 Aphis gossypii (whole stage). After further seven days, the number of insect of living Aphis gossypii parasitized on the leaves of the cucumber was examined, and a control value was calculated according to the following equation: Control value (%)={1−(Cb×Tai)/(Cai×Tb))×100 wherein symbols represent as follows: Cb: the number of insects in a non-treated section before treatment, Cai: the number of insects in a non-treated section in observation, Tb: the number of insects in a treated-section before treatment, Tai: the number of insects in a treated-section in observation; wherein the non-treated section represents a section where the test diluted solution prepared by diluting the formulation without the present compound in Formulation Example 5 with the same amount of water as in the treated-section was used.

[6] = tested on: Adoxophyes orana fasciata; experiment: Test Example 8: spray on apple tree, release of Adoxophyes orana fasciata; details: in Malus domestica, 168 h; 500 ppm active ingredient; apple tree sprayed with 20 mL/cup; 60 first-instar Adoxophyes orana fasciata; after 7 days; read-out: Death rate
Description: On the other hand, an apple tree was planted in a plastic cup, and grown until the seventh-eighth leaf was spread. The apple tree was sprayed with 20 mL/cup of each of the test spray solution. After the test solution was dried, 60 first-instar Adoxophyes orana fasciata were released, and the cup was covered with a plastic cup upside-down which the bottom was cut off and a filter paper was put thereon. After 7 days, the number of living insects was counted, and a death rate was calculated according to the following equation: Death rate (%)=(Number of dead insects/Number of tested insects)×100

[7] = 500 ppm active ingredient, cucumber seedling drenched at its foot with 5 ml, kept 7 days at 25° C., 30 Aphis gossypii inoculated, examined after 6 days

Measured: pest or weed control at 500 ppm

CCSc1ccccc1-c1nc2cc(C(F)(F)C(F)(F)F)cnc2n1C [Present Compound 55, 2-(2-ethylsulfanylphenyl)-3-methyl-6-pentafluoroethyl-3H-imidazo[4,5-b]pyridine]
≥ 90%: Nilaparvata lugens [1] | Nilaparvata lugens [2] | Aphis gossypii [3]; [7] | Bemisia tabaci | Aphis gossypii [4] | Aphis gossypii [5]

CCS(=O)(=O)c1cc(C(F)(F)F)ccc1-c1nc2cc(SC(F)(F)F)cnc2n1C [compound 306, 2-(2-ethylsulfonyl-4-trifluoromethylphenyl)-3-methyl-6-trifluoromethylsulfanyl-3H-imidazo[4,5-b]pyridine]
≥ 90%: Nilaparvata lugens [1] | Nilaparvata lugens [2] | Aphis gossypii [3]; [7] | Aphis gossypii [5]

CC[S+]([O-])c1c(Cl)cccc1-c1nc2cc(C(F)(F)F)cnc2n1C (stereo not drawn) [Present Compound 89, 2-(3-chloro-2-ethylsulfinylphenyl)-3-methyl-6-trifluoromethyl-3H-imidazo[4,5-b]pyridine]
≥ 90%: Nilaparvata lugens [1] | Aphis gossypii [3]; [7] | Aphis gossypii [5]

CCS(=O)(=O)c1cc(C(F)(F)F)ccc1-c1nc2cc(C(F)(F)F)cnc2[nH]1 [compound 345, 2-(2-ethylsulfonyl-4-trifluoromethyl-phenyl)-6-trifluoromethyl-3H-imidazo[4,5-b]pyridine]
≥ 90%: Nilaparvata lugens [1] | Aphis gossypii [3]; [7] | Bemisia tabaci | [6] | Aphis gossypii [4]

CCS(=O)(=O)c1ccccc1-c1nc2cc(C(F)(F)C(F)(F)C(F)(F)F)cnc2n1C [Present Compound 130, 2-(2-ethylsulfonylphenyl)-6-heptafluoropropyl-3-methyl-3H-imidazo[4,5-b]pyridine]
≥ 90%: Nilaparvata lugens [1] | Aphis gossypii [3]; Aphis gossypii

CCS(=O)(=O)c1cc(-c2ncccn2)ccc1-c1nc2cc(C(F)(F)F)cnc2n1C [compound 333, 2-[2-ethylsulfonyl-4-(pyrimidine-2-yl)-phenyl)-3-methyl-6-trifluoromethyl-3H-imidazo[4,5-b]pyridine]
≥ 90%: Aphis gossypii [3]; [7] | Bemisia tabaci | Aphis gossypii [4] | Aphis gossypii [5]

Reference: US8853238B2, “Fused heterocyclic compound and use thereof for pest control” (Sumitomo Chemical Company, Limited, priority 2010, dated 2014)
